Test results published in PubChem BioAssay AID248 (DTP/NCI, 2004).
Where “and” joins values, the source holds several entries; their conditions need not be identical. Equal values may be shown once. Inconclusive results and toxic doses are left out. Peptide text beside a SMILES is read from it. * marks the point of attachment. Cbz = O=C(OCc1ccccc1)*

System: L1210 leukemia ip in BDF1 mice, survival T/C
Assay: NCI In Vivo Anticancer Drug Screen. Data for tumor model L1210 Leukemia (intraperitoneal) in B6D2F1 (BDF1) mice
Settings: endpoint: mean survival time, higher = longer survival
Method in brief: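 Value reflects the ratio of survival in compound-treated mice to survival in vehicle-treated controls, with both groups carrying the same transplanted tumor.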

[1] = dose: 25.0 mg/kg/injection, schedule: Q01DX001 (ip), vehicle: saline
[2] = dose: 200.0 mg/kg/injection, schedule: Q04DX002 (ip), vehicle: saline with Tween-80
[3] = dose: 100.0 mg/kg/injection, schedule: Q04DX003 (ip), vehicle: Klucel (hydroxypropylcellulose) (HPC)
[4] = dose: 200.0 mg/kg/injection, schedule: Q04DX003 (ip), vehicle: Klucel (hydroxypropylcellulose) (HPC)
[5] = dose: 400.0 mg/kg/injection, schedule: Q04DX003 (ip), vehicle: Klucel (hydroxypropylcellulose) (HPC)

SMILES: COc1ccc2c(c1)c1c(C)c3cnccc3c(C)c1n2C
- T/C [1]: 100 % of control
- T/C (dose: 50.0 mg/kg/injection, schedule: Q01DX001 (ip), vehicle: saline): 102 % of control
- T/C (dose: 89.0 mg/kg/injection, schedule: Q01DX001 (ip), vehicle: carboxymethylcellulose (CMC)): 102 % of control
- T/C (dose: 265.0 mg/kg/injection, schedule: Q01DX001 (ip), vehicle: saline): 152 % of control
- T/C (dose: 267.0 mg/kg/injection, schedule: Q01DX001 (ip), vehicle: carboxymethylcellulose (CMC)): 107 % of control
- T/C (dose: 400.0 mg/kg/injection, schedule: Q01DX001 (ip), vehicle: carboxymethylcellulose (CMC)): 117 % of control
- T/C (dose: 400.0 mg/kg/injection, schedule: Q01DX001 (ip), vehicle: saline): 124 % of control

SMILES: OCC1C2C=CC(C3C=CC32)C1CO (configuration not stated)
- T/C (dose: 100.0 mg/kg/injection, schedule: Q04DX002 (ip), vehicle: Klucel (hydroxypropylcellulose) (HPC)): 98 % of control
- T/C (dose: 200.0 mg/kg/injection, schedule: Q04DX002 (ip), vehicle: Klucel (hydroxypropylcellulose) (HPC)): 98 % of control
- T/C (dose: 400.0 mg/kg/injection, schedule: Q04DX002 (ip), vehicle: Klucel (hydroxypropylcellulose) (HPC)): 113 % of control

SMILES: NC(=O)CNC(=O)CNC(=O)OCc1ccccc1 (Cbz-Gly-Gly-NH2)
- T/C (dose: 100.0 mg/kg/injection, schedule: Q01DX009 (ip), vehicle: saline with Tween-80): 100 % of control
- T/C (dose: 200.0 mg/kg/injection, schedule: Q01DX009 (ip), vehicle: saline with Tween-80): 92 % of control
- T/C (dose: 400.0 mg/kg/injection, schedule: Q01DX009 (ip), vehicle: saline with Tween-80): 92 % of control

SMILES: O=C1NC2CCC(NC(=O)N1c1ccccc1)C1=C2C1
- T/C (dose: 3.13 mg/kg/injection, schedule: Q01DX009 (ip), vehicle: saline with Tween-80): 94 % of control
- T/C (dose: 6.25 mg/kg/injection, schedule: Q01DX009 (ip), vehicle: saline with Tween-80): 90 % of control
- T/C (dose: 6.25 mg/kg/injection, schedule: Q04DX003 (ip), vehicle: saline with Tween-80): 106 % of control
- T/C (dose: 12.5 mg/kg/injection, schedule: Q01DX009 (ip), vehicle: saline with Tween-80): 97 % of control
- T/C (dose: 12.5 mg/kg/injection, schedule: Q04DX003 (ip), vehicle: saline with Tween-80): 94 % of control

SMILES: Cc1cccc2cc3cccc(C)[n+]3cc12
- T/C (dose: 5.0 mg/kg/injection, schedule: Q01DX001 (ip), vehicle: other): 100 % of control
- T/C (dose: 10.0 mg/kg/injection, schedule: Q01DX001 (ip), vehicle: other): 97 % of control
- T/C (dose: 20.0 mg/kg/injection, schedule: Q01DX001 (ip), vehicle: other): 100 % of control

SMILES: C=C(Br)S(=O)(=O)C(=C)Br
- T/C (dose: 6.25 mg/kg/injection, schedule: Q04DX002 (ip), vehicle: alcohol): 101 % of control
- T/C (dose: 12.5 mg/kg/injection, schedule: Q04DX002 (ip), vehicle: alcohol): 111 % of control
- T/C (dose: 25.0 mg/kg/injection, schedule: Q04DX002 (ip), vehicle: alcohol): 101 % of control

SMILES: CC(=O)NC(C(C)=O)C(C)=O.CC(=O)NC(C(C)=O)C(C)=O.[Cu]
- T/C (dose: 12.0 mg/kg/injection, schedule: Q01DX001 (ip), vehicle: saline): 90 % of control
- T/C [1]: 88 % of control

SMILES: O=C(C(=O)N1CC2OC2C1)N1CC2OC2C1 (configuration not stated)
- T/C (dose: 29.0 mg/kg/injection, schedule: Q04DX002 (ip), vehicle: saline with Tween-80): 95 % of control
- T/C (dose: 39.0 mg/kg/injection, schedule: Q01DX001 (ip), vehicle: saline with Tween-80): 98 % of control
- T/C (dose: 44.0 mg/kg/injection, schedule: Q04DX002 (ip), vehicle: saline with Tween-80): 100 % of control
- T/C (dose: 59.0 mg/kg/injection, schedule: Q01DX001 (ip), vehicle: saline with Tween-80): 102 % of control
- T/C (dose: 67.0 mg/kg/injection, schedule: Q04DX002 (ip), vehicle: saline with Tween-80): 100 % of control
- T/C (dose: 88.0 mg/kg/injection, schedule: Q01DX001 (ip), vehicle: saline with Tween-80): 97 % of control
- T/C (dose: 133.0 mg/kg/injection, schedule: Q01DX001 (ip), vehicle: saline with Tween-80): 97 % of control
- T/C (dose: 150.0 mg/kg/injection, schedule: Q04DX002 (ip), vehicle: saline with Tween-80): 102 % of control
- T/C (dose: 200.0 mg/kg/injection, schedule: Q01DX001 (ip), vehicle: saline with Tween-80): 97 % of control
- T/C [2]: 239 % of control
- T/C (dose: 225.0 mg/kg/injection, schedule: Q04DX002 (ip), vehicle: saline with Tween-80): 105 % of control
- T/C (dose: 300.0 mg/kg/injection, schedule: Q01DX001 (ip), vehicle: saline with Tween-80): 100 % of control

SMILES: O=C(Nc1nccs1)Nc1cc(C(F)(F)F)ccc1Cl
- T/C (dose: 50.0 mg/kg/injection, schedule: Q01DX001 (ip), vehicle: carboxymethylcellulose (CMC)): 103 % of control
- T/C (dose: 50.0 mg/kg/injection, schedule: Q01DX009 (ip), vehicle: carboxymethylcellulose (CMC)): 98 % of control and 109 % of control
- T/C (dose: 50.0 mg/kg/injection, schedule: Q04DX003 (ip), vehicle: carboxymethylcellulose (CMC)): 102 % of control
- T/C (dose: 100.0 mg/kg/injection, schedule: Q01DX001 (ip), vehicle: carboxymethylcellulose (CMC)): 97 % of control
- T/C (dose: 100.0 mg/kg/injection, schedule: Q01DX009 (ip), vehicle: carboxymethylcellulose (CMC)): 101 % of control and 88 % of control
- T/C (dose: 100.0 mg/kg/injection, schedule: Q04DX002 (ip), vehicle: carboxymethylcellulose (CMC)): 97 % of control and 101 % of control
- T/C (dose: 100.0 mg/kg/injection, schedule: Q04DX003 (ip), vehicle: carboxymethylcellulose (CMC)): 97 % of control
- T/C (dose: 200.0 mg/kg/injection, schedule: Q01DX001 (ip), vehicle: carboxymethylcellulose (CMC)): 98 % of control
- T/C (dose: 200.0 mg/kg/injection, schedule: Q04DX002 (ip), vehicle: carboxymethylcellulose (CMC)): 87 % of control
- T/C (dose: 200.0 mg/kg/injection, schedule: Q04DX003 (ip), vehicle: carboxymethylcellulose (CMC)): 96 % of control

SMILES: C=CCc1ccc(OCCOCCNC2CC(C)CCC2C(C)C)c(OC)c1 (configuration not stated)
- T/C [3]: 92 % of control

SMILES: CCCCCCCCCC=C(c1cccc2ccccc12)c1cccc2ccccc12
- T/C (dose: 100.0 mg/kg/injection, schedule: Q01DX001 (ip), vehicle: other): 93 % of control
- T/C (dose: 200.0 mg/kg/injection, schedule: Q01DX001 (ip), vehicle: other): 96 % of control
- T/C (dose: 400.0 mg/kg/injection, schedule: Q01DX001 (ip), vehicle: other): 102 % of control

SMILES: CC(C)(O)/C=C/C(=O)[C@](C)(O)[C@H]1[C@H](O)C[C@@]2(C)[C@@H]3CC=C4[C@@H](C[C@H](O)C(=O)C4(C)C)[C@]3(C)C(=O)C[C@]12C
- T/C (dose: 0.5 mg/kg/injection, schedule: Q01DX001 (sc), vehicle: steriod suspending solution): 102 % of control
- T/C (dose: 1.0 mg/kg/injection, schedule: Q01DX001 (sc), vehicle: steriod suspending solution): 98 % of control

SMILES: Cc1ncc(CSCC(=O)O)c(N)n1
- T/C [3]: 103 % of control
- T/C [4]: 100 % of control
- T/C [5]: 103 % of control

SMILES: NC(CSC1(c2ccc(Cl)cc2)c2ccccc2-c2ccccc21)C(=O)O (configuration not stated)
- T/C (dose: 1.56 mg/kg/injection, schedule: Q01DX009 (ip), vehicle: other): 98 % of control
- T/C (dose: 3.12 mg/kg/injection, schedule: Q01DX009 (ip), vehicle: other): 106 % of control
- T/C (dose: 6.25 mg/kg/injection, schedule: Q01DX009 (ip), vehicle: other): 100 % of control
- T/C (dose: 12.5 mg/kg/injection, schedule: Q01DX009 (ip), vehicle: other): 98 % of control and 105 % of control
- T/C (dose: 25.0 mg/kg/injection, schedule: Q01DX009 (ip), vehicle: other): 95 % of control
- T/C (dose: 50.0 mg/kg/injection, schedule: Q01DX009 (ip), vehicle: other): 100 % of control
- T/C (dose: 100.0 mg/kg/injection, schedule: Q01DX009 (ip), vehicle: other): 97 % of control

SMILES: CN1CCC(Br)(C(=O)c2ccccc2)CC1
- T/C (dose: 75.0 mg/kg/injection, schedule: Q01DX001 (ip), vehicle: saline): 101 % of control
- T/C (dose: 150.0 mg/kg/injection, schedule: Q01DX001 (ip), vehicle: saline): 93 % of control

SMILES: Cc1ccc(C)c(NC(=O)Nc2ccccc2)c1
- T/C (dose: 100.0 mg/kg/injection, schedule: Q01DX009 (ip), vehicle: Klucel (hydroxypropylcellulose) (HPC)): 100 % of control
- T/C [3]: 98 % of control
- T/C (dose: 200.0 mg/kg/injection, schedule: Q01DX009 (ip), vehicle: Klucel (hydroxypropylcellulose) (HPC)): 94 % of control
- T/C [4]: 96 % of control
- T/C (dose: 400.0 mg/kg/injection, schedule: Q01DX009 (ip), vehicle: Klucel (hydroxypropylcellulose) (HPC)): 98 % of control
- T/C [5]: 91 % of control

SMILES: Cc1cn(CC(=O)c2c[nH]c3ccccc23)c(=O)[nH]c1=O
- T/C (dose: 100.0 mg/kg/injection, schedule: Q04DX002 (ip), vehicle: saline with Tween-80): 101 % of control
- T/C [2]: 101 % of control
- T/C (dose: 400.0 mg/kg/injection, schedule: Q04DX002 (ip), vehicle: saline with Tween-80): 93 % of control

SMILES: c1cc(C[N+]23CN4CN(CN(C4)C2)C3)cs1
- T/C (dose: 25.0 mg/kg/injection, schedule: Q04DX003 (ip), vehicle: saline): 93 % of control
- T/C (dose: 50.0 mg/kg/injection, schedule: Q04DX003 (ip), vehicle: saline): 95 % of control
